Patent EP0075823A2, “Use of basically substituted phenylacetonitriles in the prophylactic treatment of illnesses” (KNOLL AG, priority 1981, dated 1983)

System: diabetischer Ratten
Test: Alloxan-induced diabetes mellitus in rats: prevention of lens and arterial wall calcinosis
Type: in vivo, Wistar-Ratten
Conditions: for durch Calcinose von Gefäßwänden verursachte Arterienveränderungen verhindern: attempts with other calcium antagonists, no dose or model details printed
Description: Gemäß der Erfindung wird es zum ersten Mal möglich, die Krankheiten vorbeugend bei Warmblütern mit Erfolg medikamentös zu behandeln, wie folgende Versuche zeigen: • Wistar-Ratten im Alter von 2 Monaten erhielten zur Erzeugung eines Diabetes mellitus intravenös 80 mg/kg Alloxan. Nach Zerstörung der Insulin-produzierenden ß-Zellen im Pancreas stieg der Blutzuckerwert bei den Tieren von 100 mg% auf etwa 420 mg%. Dieser Wert blieb während einer Beobachtungszeit von 6 1/2 Monaten praktisch konstant. Während der Beobachtungszeit erhielt ein Teil der Tiere täglich 25 mg/kg Verapamilhydrochlorid mit einer Schlucksonde. Bei den nicht mit Verapamil behandelten Tieren kam es in dieser Zeit bei 63 % der Tiere zu einem völligen Verlust der Transparenz der Augenlinse, während sich bei den behandelten Tieren nur in 4 % der Fälle ein Katarakt bildete.
Ohne Verapamil stieg der Calcium-Gehalt der Linse diabetischer Ratten vom Normalwert nicht-diabetischer Kontrolltiere (= 1,08 (i 0,02)) auf 10,89 (± 0,85) mmol/kg Trockengewicht an. Dagegen verblieb mit Verapamil der mittlere Calcium-Gehalt der Linsen diabetischer Tiere in dem niedrigeren Bereich von 3,46 (± 0,61) mmol/kg Trockengewicht.
-Mit der Verhinderung des Calcium-Anstiegs in den Arterien--Wänden wurden auch die elektronen-optisch - hauptsächlich in der Media - nachweisbaren degenerativen Prozesse verhütet.

Compound: COc1ccc(CCN(C)CCCC(C#N)(c2cc(OC)c(OC)c(OC)c2)C(C)C)cc1OC (stereo not drawn) [Gallopamil, α-ISOpropyl-α-[(N-methyl-N-homoveratryl)--α-aminopropyl]-3,4,5-trimethoxyphenylacetonitril]
- Verhütung der diabetischen Linsen-Calcinose und des Calcium-Anstiegs in den Arterien-Wänden (general statement that corresponding results can be obtained, no data or dose printed): Entsprechende Ergebnisse

Compound: COC(=O)C1=C(C)NC(C)=C(C(=O)OC)C1c1ccccc1[N+](=O)[O-] [Nifedipin]
- durch Calcinose von Gefäßwänden verursachte Arterienveränderungen verhindern: erfolglos

Compound: CCCOCCOC(=O)C1=C(C)NC(C)=C(C(=O)OCCOCCC)C1c1cccc([N+](=O)[O-])c1 [Niludipin]
- durch Calcinose von Gefäßwänden verursachte Arterienveränderungen verhindern: erfolglos

Compound: COc1ccc(CCN(C)CCCC(C#N)(c2ccc(OC)c(OC)c2)C(C)C)cc1OC (stereo not drawn) [Verapamil, α-Isopropyl-α-[(N-methyl-N-homoveratryl)--α-aminopropyl]-3,4-dimethoxyphenylacetonitril]
- Katarakt (völliger Verlust der Transparenz der Augenlinse), Anteil der Tiere (alloxan-diabetic Wistar rats (80 mg/kg Alloxan i.v.), 25 mg/kg daily by gavage, observation 6 1/2 months, untreated diabetic animals 63 %): 4%
- mittlerer Calcium-Gehalt der Linsen diabetischer Tiere (alloxan-diabetic rats, 25 mg/kg daily p.o., 6 1/2 months, untreated diabetic 10,89 (± 0,85), non-diabetic controls 1,08): 3,46 (± 0,61) mmol/kg Trockengewicht
- elektronen-optisch - hauptsächlich in der Media - nachweisbare degenerative Prozesse (arterial walls of the same treated diabetic rats, electron microscopy): verhütet
- abnormer Anstieg der Calcium-Werte in der Wand der Aorta und der Arteria mesenterica superior (Darmarterie) (same alloxan-diabetic rats, 25 mg/kg daily p.o., 6 1/2 months): verhindert
